Assays:
[1] = tested on: Puccinia recondita f. Sp. Tritici; assay: Puccinia recondita f. sp. tritici / wheat / leaf disc preventative (brown rust); type: in vivo; conditions: foliar, 200 ppm in the applied formulation, wheat leaf segments cv. Kanzler, preventative (inoculated 1 day after application), compared to untreated, read-out: disease control
Method: Leaf disks or leaf segments of various plant species are cut from plants grown in a greenhouse. The cut leaf disks or segments are placed in multiwell plates (24-well format) onto water agar. The leaf disks are sprayed with a test solution before (preventative) or after (curative) inoculation. Compounds to be tested are prepared as DMSO solutions (max. 10 mg/ml) which are diluted to the appropriate concentration with 0.025% Tween20 just before spraying. The inoculated leaf disks or segments are incubated under defined conditions (temperature, relative humidity, light, etc.) according to the respective test system. A single evaluation of disease level is carried out 3 to 14 days after inoculation, depending on the pathosystem. Percent disease control relative to the untreated check leaf disks or segments is then calculated. Wheat leaf segments cv. Kanzler were placed on agar in multiwell plates (24-well format) and sprayed with the formulated test compound diluted in water. The leaf disks were inoculated with a spore suspension of the fungus 1 day after application. The inoculated leaf segments were incubated at 19° C. and 75% relative humidity (rh) under a light regime of 12 hours light/12 hours darkness in a climate cabinet and the activity of a compound was assessed as percent disease control compared to untreated when an appropriate level of disease damage appears in untreated check leaf segments (7 to 9 days after application). The following compounds at 200 ppm in the applied formulation give at least 80% disease control in this test when compared to untreated control leaf disks under the same conditions, which show extensive disease development.

[2] = tested on: Puccinia recondita f. Sp. Tritici; assay: Puccinia recondita f. sp. tritici / wheat / leaf disc curative (brown rust); type: in vivo; conditions: foliar, 24 h, 200 ppm in the applied formulation, wheat leaf segments cv. Kanzler, curative (applied 1 day after inoculation), compared to untreated, read-out: disease control
Method: Leaf disks or leaf segments of various plant species are cut from plants grown in a greenhouse. The cut leaf disks or segments are placed in multiwell plates (24-well format) onto water agar. The leaf disks are sprayed with a test solution before (preventative) or after (curative) inoculation. Compounds to be tested are prepared as DMSO solutions (max. 10 mg/ml) which are diluted to the appropriate concentration with 0.025% Tween20 just before spraying. The inoculated leaf disks or segments are incubated under defined conditions (temperature, relative humidity, light, etc.) according to the respective test system. A single evaluation of disease level is carried out 3 to 14 days after inoculation, depending on the pathosystem. Percent disease control relative to the untreated check leaf disks or segments is then calculated.
Wheat leaf segments cv. Kanzler are placed on agar in multiwell plates (24-well format). The leaf segments are then inoculated with a spore suspension of the fungus. Plates were stored in darkness at 19° C. and 75% relative humidity. The formulated test compound diluted in water was applied 1 day after inoculation. The leaf segments were incubated at 19° C. and 75% relative humidity under a light regime of 12 hours light/12 hours darkness in a climate cabinet and the activity of a compound was assessed as percent disease control compared to untreated when an appropriate level of disease damage appears in untreated check leaf segments (6 to 8 days after application).
The following compounds at 200 ppm in the applied formulation give at least 80% disease control in this test when compared to untreated control leaf disks under the same conditions, which show extensive disease development.

[3] = tested on: Glomerella lacenarium (Colletotrichum lagenarium); assay: Glomerella lagenarium liquid culture / cucumber / preventative (anthracnose); type: cell-based; conditions: Colletotrichum orbiculare; 20 ppm in the applied formulation; liquid culture (PDB), growth inhibition measured photometrically 3 to 4 days after application; compared to untreated; read-out: disease control
Method: Mycelia fragments or conidia suspensions of a fungus prepared either freshly from liquid cultures of the fungus or from cryogenic storage, are directly mixed into nutrient broth. DMSO solutions of the test compound (max. 10 mg/ml) are diluted with 0.025% Tween20 by a factor of 50 and 10 μl of this solution is pipetted into a microtiter plate (96-well format). The nutrient broth containing the fungal spores/mycelia fragments is then added to give an end concentration of the tested compound. The test plates are incubated in the dark at 24° C. and 96% relative humidity. The inhibition of fungal growth is determined photometrically after 2 to 7 days, depending on the pathosystem, and percent antifungal activity relative to the untreated check is calculated.
Conidia of the fungus from cryogenic storage are directly mixed into nutrient broth (PDB—potato dextrose broth). After placing a (DMSO) solution of test compound into a microtiter plate (96-well format), the nutrient broth containing the fungal spores is added.
The following compounds at 20 ppm in the applied formulation give at least 80% disease control in this test when compared to untreated control under the same conditions, which show extensive disease development.

SMILES | pest or weed control at 200 ppm [1] | pest or weed control at 200 ppm [2] | inhibition of growth at 20 ppm [3]
CC(C)COC(=O)NCc1ccc(-c2noc(C(F)(F)F)n2)cn1 [Compound 2.22, isobutyl N-[[5-[5-(trifluoromethyl)-1,2,4-oxadiazol-3-yl]-2-pyridyl]methyl]carbamate] | ≥ 80% | ≥ 80% | ≥ 80%
CCOC(=O)NCc1ccc(-c2noc(C(F)(F)F)n2)cn1 [Compound 2.32, ethyl N-[[5-[5-(trifluoromethyl)-1,2,4-oxadiazol-3-yl]-2-pyridyl]methyl]carbamate] | ≥ 80% | ≥ 80% | ≥ 80%
COCC(=O)NCc1ccc(-c2noc(C(F)(F)F)n2)cn1 [Compound 1.69, 2-methoxy-N-[[5-[5-(trifluoromethyl)-1,2,4-oxadiazol-3-yl]-2-pyridyl]methyl]acetamide] | ≥ 80% | ≥ 80% | ≥ 80%
O=C(CC(F)(F)F)NCc1ccc(-c2noc(C(F)(F)F)n2)cn1 [Compound 1.74, 3,3,3-trifluoro-N-[(5-[5-(trifluoromethyl)-1,2,4-oxadiazol-3-yl]-2-pyridyl]methyl]propanamide] | ≥ 80% | ≥ 80% | ≥ 80%
CC(C)(C)COC(=O)NCc1ccc(-c2noc(C(F)(F)F)n2)cn1 [Compound 2.34, 2,2-dimethylpropyl N-[[5-[5-(trifluoromethyl)-1,2,4-oxadiazol-3-yl]-2-pyridyl]methyl]carbamate] |  | ≥ 80% | ≥ 80%
CCCCOC(=O)NCc1ccc(-c2noc(C(F)(F)F)n2)cn1 [Compound 2.26, butyl N-[[5-[5-(trifluoromethyl)-1,2,4-oxadiazol-3-yl]-2-pyridyl]methyl]carbamate] | ≥ 80% | ≥ 80% | ≥ 80%
CC(C)OC(=O)NCc1ccc(-c2noc(C(F)(F)F)n2)cn1 [Compound 2.29, isopropyl N-[[5-[5-(trifluoromethyl)-1,2,4-oxadiazol-3-yl]-2-pyridyl]methyl]carbamate] | ≥ 80% | ≥ 80% | ≥ 80%
CC(C)(C)COC(=O)NCc1ccc(-c2noc(C(F)(F)F)n2)cc1 [Compound 2.18, 2,2-dimethylpropyl N-[[4-[5-(trifluoromethyl)-1,2,4-oxadiazol-3-yl]phenyl]methyl]carbamate] | ≥ 80% | ≥ 80% | ≥ 80%
CC(C)(C)CNC(=O)NCc1ccc(-c2noc(C(F)(F)F)n2)cc1 [Compound 3.8, 1-(2,2-dimethylpropyl)-3-[[4-[5-(trifluoromethyl)-1,2,4-oxadiazol-3-yl]phenyl]methyl]urea] | ≥ 80% |  | 
CC(C)CNC(=O)NCc1ccc(-c2noc(C(F)(F)F)n2)cc1 [Compound 3.11, 1-isobutyl-3-[[4-[5-(trifluoromethyl)-1,2,4-oxadiazol-3-yl]phenyl]methyl]urea] | ≥ 80% |  | ≥ 80%
N#CCC(=O)NCc1ccc(-c2noc(C(F)(F)F)n2)c(F)c1 [Compound 1.43, 2-cyano-N-[[3-fluoro-4-[5-(trifluoromethyl)-1,2,4-oxadiazol-3-yl]phenyl]methyl]acetamide] | ≥ 80% | ≥ 80% | ≥ 80%
CCCC(=O)NCc1ccc(-c2noc(C(F)(F)F)n2)cn1 [Compound 1.67, N-[[5-[5-(trifluoromethyl)-1,2,4-oxadiazol-3-yl]-2-pyridyl]methyl]butanamide] | ≥ 80% | ≥ 80% | ≥ 80%
COCC(=O)NCc1ccc(-c2noc(C(F)(F)F)n2)cc1C(F)(F)F [Compound 1.70, 2-methoxy-N-[[2-(trifluoromethyl)-4-[5-(trifiuoromethyl)-1,2,4-oxadiazol-3-yl]phenyl]methyl]acetamide] |  |  | ≥ 80%
COCCCC(=O)NCc1ccc(-c2noc(C(F)(F)F)n2)cc1Cl [Compound 1.60, N-[[2-chloro-4-[5-(trifluoromethyl)-1,2,4-oxadiazol-3-yl]phenyl]methyl]-4-methoxy-butanamide] | ≥ 80% | ≥ 80% | ≥ 80%
CCCCCOC(=O)NCc1ccc(-c2noc(C(F)(F)F)n2)cc1 [Compound 2.9, pentyl N-[[4-[5-(trifluoromethyl)-1,2,4-oxadiazol-3-yl]phenyl]methyl]carbamate] | ≥ 80% |  | 
N#CCC(=O)NCc1ccc(-c2noc(C(F)(F)F)n2)cn1 [Compound 1.73, 2-cyano-N-[[5-[5-(trifluoromethyl)-1,2,4-oxadiazol-3-yl]-2-pyridyl]methyl]acetamide] |  | ≥ 80% | ≥ 80%
O=C(NCCCCl)NCc1ccc(-c2noc(C(F)(F)F)n2)cn1 [Compound 3.19] | ≥ 80% |  | 
CCCCNC(=O)NCc1ccc(-c2noc(C(F)(F)F)n2)cn1 [Compound 3.20, 1-butyl-3-[[5-[5-(trifluoromethyl)-1,2,4-oxadiazol-3-yl]-2-pyridyl]methyl]urea] | ≥ 80% |  | ≥ 80%
CC(=O)NCc1ccc(-c2noc(C(F)(F)F)n2)cc1Cl [Compound 1.64, N-[[2-chloro-4-[5-(trifluoromethyl)-1,2,4-oxadiazol-3-yl]phenyl]methyl]acetamide] | ≥ 80% |  | ≥ 80%
CCCCCOC(=O)NCc1ccc(-c2noc(C(F)(F)F)n2)cn1 [Compound 2.23, pentyl N-[[5-[5-(trifluoromethyl)-1,2,4-oxadiazol-3-yl]-2-pyridyl]methyl]carbamate] | ≥ 80% |  | ≥ 80%
COCC(=O)NCc1ccc(-c2noc(C(F)(F)F)n2)cc1Cl [Compound 1.57, N-[[2-chloro-4-[5-(trifluoromethyl)-1,2,4-oxadiazol-3-yl]phenyl]methyl]-2-methoxy-acetamide] |  | ≥ 80% | ≥ 80%
CC(C)C(=O)NCc1ccc(-c2noc(C(F)(F)F)n2)cc1Cl [Compound 1.50, N-[[2-chloro-4-[5-(trifluoromethyl)-1,2,4-oxadiazol-3-yl]phenyl]methyl]-2-methyl-propanamide] |  |  | ≥ 80%
CCC(C)C(=O)NCc1ccc(-c2noc(C(F)(F)F)n2)cc1Cl (stereo not shown) [Compound 1.58, N-[[2-chloro-4-[5-(trifluoromethyl)-1,2,4-oxadiazol-3-yl]phenyl]methyl]-2-methyl-butanamide] |  |  | ≥ 80%
CCCC(=O)NCc1ccc(-c2noc(C(F)(F)F)n2)cc1Cl [Compound 1.52, N-[[2-chloro-4-[5-(trifiuoromethyl)-1,2,4-oxadiazol-3-yl]phenyl]methyl]butanamide] |  |  | ≥ 80%
COCCC(=O)NCc1ccc(-c2noc(C(F)(F)F)n2)cc1Cl [Compound 1.55, N-[[2-chloro-4-[5-(trifluoromethyl)-1,2,4-oxadiazol-3-yl]phenyl]methyl]-3-methoxy-propanamide] |  |  | ≥ 80%

Source: patent publication US10501425B2, “Microbiocidal oxadiazole derivatives” (SYNGENTA PARTICIPATIONS AG, priority 2015, dated 2019)
